Our source for the Dmax and DC50 values is patent US12624044B2, “SMARCA degraders and uses thereof” (Kymera Therapeutics, Inc., priority 2019, dated 2026).

In this assay the target is SMARCA2 (Homo sapiens, UniProt P51531). As to the kind of experiment: MSD SMARCA2 degradation in NCI-H1299 cell line (24 h). The class given is cell-based. The following applies: for Dmax: NCI-H1299, NCI-H1299 cells; for DC50: NCI-H1299 cells, read-out: SMARCA2 MSD H1299 degradation 24 h: External Abs-DC50. On the set-up: HC: NCI-H1299 cells treated with DMSO; host or cells: NCI-H1299. The essentials: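 SMARCA2 measured by MSD electrochemiluminescence (primary 0.3 ug/ml, secondary 1 ug/ml) on lysates from NCI-H1299 cells exposed to compounds for 24 h across nine 3-fold dilutions. Signal scaled from A2780 cells (no SMARCA2) to DMSO-treated H1299 controls, and maximal degradation after 24 h reported in letter categories.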

Each structure is given as a SMILES string. Some results are limits rather than exact numbers.

SMARCA2, sequence (P51531 whole entry): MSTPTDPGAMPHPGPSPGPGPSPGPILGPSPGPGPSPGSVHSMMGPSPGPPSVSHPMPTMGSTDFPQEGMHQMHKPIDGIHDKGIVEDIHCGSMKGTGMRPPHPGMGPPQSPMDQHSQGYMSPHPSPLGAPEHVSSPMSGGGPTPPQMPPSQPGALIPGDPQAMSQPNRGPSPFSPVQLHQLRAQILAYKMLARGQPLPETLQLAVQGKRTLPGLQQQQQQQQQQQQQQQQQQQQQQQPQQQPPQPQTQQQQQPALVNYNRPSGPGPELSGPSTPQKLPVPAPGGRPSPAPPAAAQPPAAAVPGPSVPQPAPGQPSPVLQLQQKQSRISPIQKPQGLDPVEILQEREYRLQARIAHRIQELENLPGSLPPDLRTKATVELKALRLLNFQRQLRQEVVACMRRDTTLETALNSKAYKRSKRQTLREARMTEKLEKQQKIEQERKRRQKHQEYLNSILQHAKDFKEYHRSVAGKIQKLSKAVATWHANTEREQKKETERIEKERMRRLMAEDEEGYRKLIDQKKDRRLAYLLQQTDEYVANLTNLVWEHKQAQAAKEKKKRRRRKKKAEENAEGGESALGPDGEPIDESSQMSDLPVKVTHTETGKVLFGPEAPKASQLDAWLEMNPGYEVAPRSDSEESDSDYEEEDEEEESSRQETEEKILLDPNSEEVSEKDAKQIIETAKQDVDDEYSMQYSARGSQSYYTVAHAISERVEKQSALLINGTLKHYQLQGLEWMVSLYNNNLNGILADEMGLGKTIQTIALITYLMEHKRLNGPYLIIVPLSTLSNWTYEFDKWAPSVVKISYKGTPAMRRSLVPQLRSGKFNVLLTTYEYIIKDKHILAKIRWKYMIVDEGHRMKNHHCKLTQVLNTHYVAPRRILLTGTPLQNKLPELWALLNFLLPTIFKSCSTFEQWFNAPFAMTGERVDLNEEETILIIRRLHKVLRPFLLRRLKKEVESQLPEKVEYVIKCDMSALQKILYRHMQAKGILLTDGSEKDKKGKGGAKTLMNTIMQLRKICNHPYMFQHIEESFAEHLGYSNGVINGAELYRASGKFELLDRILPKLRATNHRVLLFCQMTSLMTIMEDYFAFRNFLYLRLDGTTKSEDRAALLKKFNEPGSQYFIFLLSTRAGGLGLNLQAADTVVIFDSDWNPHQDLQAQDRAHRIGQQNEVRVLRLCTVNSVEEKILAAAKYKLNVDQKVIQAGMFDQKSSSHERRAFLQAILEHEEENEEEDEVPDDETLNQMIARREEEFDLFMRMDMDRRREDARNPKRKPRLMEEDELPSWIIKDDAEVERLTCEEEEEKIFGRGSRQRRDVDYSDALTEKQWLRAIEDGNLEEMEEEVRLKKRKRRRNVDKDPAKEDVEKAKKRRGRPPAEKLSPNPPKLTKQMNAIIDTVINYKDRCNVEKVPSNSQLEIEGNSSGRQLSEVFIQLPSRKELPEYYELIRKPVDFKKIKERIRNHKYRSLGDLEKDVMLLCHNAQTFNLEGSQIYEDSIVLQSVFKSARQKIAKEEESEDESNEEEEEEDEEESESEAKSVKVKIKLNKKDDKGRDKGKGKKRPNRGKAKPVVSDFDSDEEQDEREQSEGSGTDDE

For `Cn1c(=O)n(C2CCC(=O)NC2=O)c2ccc(CCCN3CCC[C@@H](Cn4cc(-c5cc(-c6ccccc6O)nnc5N)cn4)C3)cc21` (some centres unmarked) [I-191], the greatest degradation seen (Dmax) fell in the range of 50 to 70% and the DC50 fell in the range of 100 to 500 nM.

In the case of `Cn1c(=O)n(C2CCC(=O)NC2=O)c2ccc(CCCCN3CCC[C@@H](Cn4cc(-c5cc(-c6ccccc6O)nnc5N)cn4)C3)cc21` (some centres unmarked) [I-192], the greatest degradation seen (Dmax) was in the range of 50 to 70% and the DC50 lay in the range of 100 to 500 nM.

Regarding `Cn1c(=O)n(C2CCC(=O)NC2=O)c2ccc(CCCCCN3CCC[C@@H](Cn4cc(-c5cc(-c6ccccc6O)nnc5N)cn4)C3)cc21` (stereo partly drawn) [I-193, 3-[5-[5-[(3R)-3-[[4-[3-amino-6-(2-hydroxyphenyl)pyridazin-4-yl]pyrazol-1-yl]methyl]-1-piperidyl]pentyl]-3-methyl-2-oxo-benzimidazol-1-yl]piperidine-2,6-dione], the Dmax was 50 to 70% and the 50% degradation concentration (DC50) lay in the range of 501 to 1000 nM. In the same order, the values of `Cn1c(=O)n(C2CCC(=O)NC2=O)c2cccc(CCCN3CCC(Cn4cc(-c5cc(-c6ccccc6O)nnc5N)cn4)CC3)c21` (centres unmarked) [I-194] are above 90% and below 100 nM. In the same order, the values of `CN(CC#Cc1cnc(N2C3CCC2CN(c2cc(-c4ccccc4O)nnc2N)C3)nc1)CCCc1ccc2c(c1)n(C)c(=O)n2C1CCC(=O)NC1=O` (centres unmarked) [I-195, 3-[5-[3-[3-[2-[3-[3-amino-6-(2-hydroxyphenyl)pyridazin-4-yl]-3,8-diazabicyclo[3.2.1]octan-8-yl]pyrimidin-5-yl]prop-2-ynyl-methyl-amino]propyl]-3-methyl-2-oxo-benzimidazol-1-yl]piperidine-2,6-dione] are above 90% and below 100 nM. For `Cn1c(=O)n(C2CCC(=O)NC2=O)c2ccc(CN3CCC(c4cnc(N5C6CCC5CN(c5cc(-c7ccccc7O)nnc5N)C6)nc4)CC3)cc21` (centres unmarked) [I-196], in that order: above 90% and below 100 nM. With `CN[C@@H](C)C(=O)N[C@H](C(=O)N1CCC[C@H]1c1nc(C(=O)c2cccc(OCCOCCOCCNCc3ccc(-c4cc(-c5ccccc5O)nnc4N)cc3)c2)cs1)C1CCCCC1` [I-198, (S)—N—((S)-2-((S)-2-(4-(3-(2-(2-(2-((4-(3-amino-6-(2-hydroxyphenyl)pyridazin-4-yl)benzyl)amino)ethoxy)ethoxy)ethoxy)benzoyl)thiazol-2-yl)pyrrolidin-1-yl)-1-cyclohexyl-2-oxoethyl)-2-(methylamino)propanamide], the Dmax was in the range of 50 to 70% and the DC50 is above 1000 nM. Regarding `CN[C@@H](C)C(=O)N[C@H](C(=O)N1Cc2cc(OCCOCCOCCOCCNC(=O)CCCOc3cccc(N4C[C@H]5C[C@@H]4CN5/C=C/C(=O)c4ccccc4O)n3)ccc2C[C@H]1C(=O)N[C@@H]1CCCc2ccccc21)C(C)(C)C` [I-199], the DC50 was above 1000 nM. Same read-out and setting: the result for `CN[C@@H](C)C(=O)N[C@H](C(=O)N1Cc2cc(OCCOCCOCCNC(=O)CCCOc3cccc(N4C[C@H]5C[C@@H]4CN5/C=C/C(=O)c4ccccc4O)n3)ccc2C[C@H]1C(=O)N[C@@H]1CCCc2ccccc21)C(C)(C)C` [I-200] reads above 1000 nM; that for `Cc1ncsc1-c1ccc(CNC(=O)[C@@H]2C[C@@H](O)CN2C(=O)[C@@H](NC(=O)COCCOCCOCCOCCNC(=O)CCCOc2cccc(N3C[C@H]4C[C@@H]3CN4/C=C/C(=O)c3ccccc3O)n2)C(C)(C)C)cc1` [I-201], above 1000 nM; that for `CN[C@@H](C)C(=O)N[C@H](C(=O)N1Cc2cc(OCCOCCOCCOCCOCCOCCNC(=O)CCCCCCCCOc3ccnc(N4C[C@H]5C[C@@H]4CN5/C=C/C(=O)c4ccccc4O)c3)ccc2C[C@H]1C(=O)N[C@@H]1CCCc2ccccc21)C(C)(C)C` [I-202], above 1000 nM. Same read-out and setting: the result for `CN[C@@H](C)C(=O)N[C@H](C(=O)N1Cc2cc(OCCOCCOCCOCCOCCNC(=O)CCCCCCCCOc3ccnc(N4C[C@H]5C[C@@H]4CN5/C=C/C(=O)c4ccccc4O)c3)ccc2C[C@H]1C(=O)N[C@@H]1CCCc2ccccc21)C(C)(C)C` [I-203] reads above 1000 nM; that for `CN[C@@H](C)C(=O)N[C@H](C(=O)N1Cc2cc(OCCOCCOCCOCCNC(=O)CCCCCCCCOc3ccnc(N4C[C@H]5C[C@@H]4CN5/C=C/C(=O)c4ccccc4O)c3)ccc2C[C@H]1C(=O)N[C@@H]1CCCc2ccccc21)C(C)(C)C` [I-204], above 1000 nM.
